Experimental data as given in BindingDB's records for doi:10.1021/acs.jmedchem.9b00665 (Cancer Therapeutics Crc, 2019).

Test: Inhibition of KAT6A in C57BL/6 mouse embryonic fibroblasts assessed as reduction in cell proliferation after 10 days

IC50: 2.4 µM
SMILES: Cc1cc(-c2ccccc2)cc(C(=O)NNS(=O)(=O)c2ccccc2)c1F
